Data taken from patent publication US9492471B2, “Methods of treating a disease or disorder associated with Bruton'S Tyrosine Kinase” (Celgene Avilomics Research, Inc., priority 2013, dated 2016).
Like-named read-outs stand apart in the source and are kept apart here.

Experiments:
Assay in all cases: HotSpot kinase profiling
Format in all cases: biochemical
BRSK2 = target: T1, BRSK2 (Homo sapiens, UniProt Q8IWQ3)
T1 construct: purchased Reaction Biology Corp
T1 sequence (Q8IWQ3 1-736): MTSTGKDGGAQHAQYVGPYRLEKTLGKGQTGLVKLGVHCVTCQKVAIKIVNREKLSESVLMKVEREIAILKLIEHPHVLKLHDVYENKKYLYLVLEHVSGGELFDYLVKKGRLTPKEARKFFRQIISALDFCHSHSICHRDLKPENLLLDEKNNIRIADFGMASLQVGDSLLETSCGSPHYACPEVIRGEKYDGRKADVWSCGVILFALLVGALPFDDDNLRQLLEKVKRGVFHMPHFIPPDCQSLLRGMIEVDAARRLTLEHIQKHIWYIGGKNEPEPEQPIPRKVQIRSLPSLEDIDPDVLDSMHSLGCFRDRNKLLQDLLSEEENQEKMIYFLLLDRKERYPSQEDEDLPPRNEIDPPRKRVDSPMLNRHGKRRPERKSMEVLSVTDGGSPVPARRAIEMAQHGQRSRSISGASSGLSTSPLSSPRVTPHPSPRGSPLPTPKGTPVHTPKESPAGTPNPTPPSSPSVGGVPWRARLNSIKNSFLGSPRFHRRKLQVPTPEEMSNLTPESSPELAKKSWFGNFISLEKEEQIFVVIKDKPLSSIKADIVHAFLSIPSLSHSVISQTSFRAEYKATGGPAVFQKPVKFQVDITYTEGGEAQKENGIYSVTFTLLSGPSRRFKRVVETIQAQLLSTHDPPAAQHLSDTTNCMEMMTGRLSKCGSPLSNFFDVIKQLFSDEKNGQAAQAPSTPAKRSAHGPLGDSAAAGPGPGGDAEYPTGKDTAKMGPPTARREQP
How it was run: (§1)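 P81 filtration radiometric readout; 2 h incubation at room temperature; 0.1% phosphoric acid wash; DMSO negative control; % inhibition, mean of replicate runs.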

CAMK1d = target: T2, CAMK1d (Homo sapiens, UniProt Q8IU85)
T2 construct: purchased Reaction Biology Corp
How it was run: as §1

CDC7/DBF4 = target: T3, CDC7/DBF4 (Homo sapiens, UniProt O00311)
T3 construct: purchased Reaction Biology Corp
How it was run: as §1

DAPK2 = target: T4, DAPK2 (Homo sapiens, UniProt Q9UIK4)
T4 construct: purchased Reaction Biology Corp
How it was run: as §1

EPHA4 = target: T5, EPHA4 (Homo sapiens, UniProt P54764)
T5 construct: purchased Reaction Biology Corp
How it was run: as §1

LIMK2 = target: T6, LIMK2 (Homo sapiens, UniProt P53671)
T6 construct: purchased Reaction Biology Corp
How it was run: as §1

MYLK3 = target: T7, MYLK3 (Homo sapiens, UniProt Q32MK0)
T7 construct: purchased Reaction Biology Corp
T7 sequence (Q32MK0 1-819): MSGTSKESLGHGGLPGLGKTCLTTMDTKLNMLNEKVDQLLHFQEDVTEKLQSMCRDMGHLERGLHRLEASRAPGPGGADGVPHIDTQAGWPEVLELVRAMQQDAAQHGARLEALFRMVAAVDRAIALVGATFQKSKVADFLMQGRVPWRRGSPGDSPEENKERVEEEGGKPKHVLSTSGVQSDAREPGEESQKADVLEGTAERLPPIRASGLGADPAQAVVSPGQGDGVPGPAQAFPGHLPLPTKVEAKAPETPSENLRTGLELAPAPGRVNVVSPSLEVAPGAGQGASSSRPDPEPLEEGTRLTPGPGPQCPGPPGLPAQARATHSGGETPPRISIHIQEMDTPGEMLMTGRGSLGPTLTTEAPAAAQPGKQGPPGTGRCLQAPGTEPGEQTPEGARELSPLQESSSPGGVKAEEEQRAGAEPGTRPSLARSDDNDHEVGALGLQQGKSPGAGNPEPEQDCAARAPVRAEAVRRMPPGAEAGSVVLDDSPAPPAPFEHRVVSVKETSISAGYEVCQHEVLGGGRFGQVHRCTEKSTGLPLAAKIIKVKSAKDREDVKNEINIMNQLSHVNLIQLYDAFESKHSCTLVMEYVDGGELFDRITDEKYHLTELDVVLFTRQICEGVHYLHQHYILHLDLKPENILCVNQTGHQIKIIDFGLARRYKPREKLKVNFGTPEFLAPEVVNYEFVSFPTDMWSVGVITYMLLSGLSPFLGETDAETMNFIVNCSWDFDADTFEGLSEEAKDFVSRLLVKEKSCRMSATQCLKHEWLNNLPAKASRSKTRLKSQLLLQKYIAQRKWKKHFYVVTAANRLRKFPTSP
How it was run: as §1

NEK6 = target: T8, NEK6 (Homo sapiens, UniProt Q9HC98)
T8 construct: purchased Reaction Biology Corp
How it was run: as §1

PKN2/PRK2 = target: T9, PKN2/PRK2 (Homo sapiens, UniProt Q16513)
T9 construct: purchased Reaction Biology Corp
How it was run: as §1

SRPK2 = target: T10, SRPK2 (Homo sapiens, UniProt P78362)
T10 construct: purchased Reaction Biology Corp
How it was run: as §1

TRKB = target: T11, TRKB (Homo sapiens, UniProt Q16620)
T11 construct: purchased Reaction Biology Corp
How it was run: as §1

[1] = read-out: % Enzyme Activity (relative to DMSO controls) Run 1
[2] = read-out: % Enzyme Activity (relative to DMSO controls) Run 2

T5 sequence (P54764 20-986): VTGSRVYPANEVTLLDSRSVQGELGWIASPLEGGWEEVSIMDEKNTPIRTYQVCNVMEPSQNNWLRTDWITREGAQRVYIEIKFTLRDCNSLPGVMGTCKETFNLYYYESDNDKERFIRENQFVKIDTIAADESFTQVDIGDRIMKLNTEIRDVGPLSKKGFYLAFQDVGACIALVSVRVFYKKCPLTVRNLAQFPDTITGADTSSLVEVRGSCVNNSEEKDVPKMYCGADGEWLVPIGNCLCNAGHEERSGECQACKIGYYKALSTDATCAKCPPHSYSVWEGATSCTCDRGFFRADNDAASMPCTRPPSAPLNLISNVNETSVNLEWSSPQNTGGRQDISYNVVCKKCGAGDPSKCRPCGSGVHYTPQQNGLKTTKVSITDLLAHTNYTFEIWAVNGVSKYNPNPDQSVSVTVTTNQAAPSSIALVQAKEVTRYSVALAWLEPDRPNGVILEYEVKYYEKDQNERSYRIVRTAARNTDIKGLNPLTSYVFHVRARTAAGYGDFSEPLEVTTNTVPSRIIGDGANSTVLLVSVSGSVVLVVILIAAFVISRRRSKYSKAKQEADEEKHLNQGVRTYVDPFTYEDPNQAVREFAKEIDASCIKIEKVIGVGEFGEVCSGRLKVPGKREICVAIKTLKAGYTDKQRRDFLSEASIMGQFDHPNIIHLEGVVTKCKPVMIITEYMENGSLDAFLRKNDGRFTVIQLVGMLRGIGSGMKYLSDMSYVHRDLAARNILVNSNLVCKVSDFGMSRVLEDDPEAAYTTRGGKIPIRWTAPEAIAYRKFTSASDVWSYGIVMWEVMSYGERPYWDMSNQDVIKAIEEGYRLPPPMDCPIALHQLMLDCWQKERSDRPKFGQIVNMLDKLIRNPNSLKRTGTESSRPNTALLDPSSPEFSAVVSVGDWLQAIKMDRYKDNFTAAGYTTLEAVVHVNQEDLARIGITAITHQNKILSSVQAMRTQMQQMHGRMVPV
T8 sequence (Q9HC98 whole entry): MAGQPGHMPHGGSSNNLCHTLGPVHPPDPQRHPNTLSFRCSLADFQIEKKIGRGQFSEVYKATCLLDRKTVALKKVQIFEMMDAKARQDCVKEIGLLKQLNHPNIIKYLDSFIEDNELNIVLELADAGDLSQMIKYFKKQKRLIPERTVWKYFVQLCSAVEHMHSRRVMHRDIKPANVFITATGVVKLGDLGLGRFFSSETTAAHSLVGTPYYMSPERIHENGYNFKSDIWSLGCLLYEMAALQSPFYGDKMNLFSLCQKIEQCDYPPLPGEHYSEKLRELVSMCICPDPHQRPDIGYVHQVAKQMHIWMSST
T10 sequence (P78362 whole entry): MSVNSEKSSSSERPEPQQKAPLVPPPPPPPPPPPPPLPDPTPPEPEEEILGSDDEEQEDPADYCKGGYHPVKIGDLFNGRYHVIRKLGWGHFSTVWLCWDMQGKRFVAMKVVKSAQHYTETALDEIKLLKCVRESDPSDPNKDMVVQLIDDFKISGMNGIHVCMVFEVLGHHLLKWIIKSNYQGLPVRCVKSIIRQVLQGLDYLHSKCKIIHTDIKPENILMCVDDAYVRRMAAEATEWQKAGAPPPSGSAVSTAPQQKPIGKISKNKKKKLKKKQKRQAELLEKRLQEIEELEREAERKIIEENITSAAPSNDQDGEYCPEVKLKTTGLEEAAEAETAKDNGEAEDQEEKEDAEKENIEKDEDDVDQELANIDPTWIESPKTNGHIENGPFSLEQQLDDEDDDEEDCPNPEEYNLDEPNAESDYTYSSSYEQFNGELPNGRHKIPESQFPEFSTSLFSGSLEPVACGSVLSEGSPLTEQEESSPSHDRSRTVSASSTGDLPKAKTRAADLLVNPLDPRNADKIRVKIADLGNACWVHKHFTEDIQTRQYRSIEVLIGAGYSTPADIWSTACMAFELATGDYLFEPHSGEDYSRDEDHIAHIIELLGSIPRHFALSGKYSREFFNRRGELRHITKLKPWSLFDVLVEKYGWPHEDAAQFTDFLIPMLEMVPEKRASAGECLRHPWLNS
T11 sequence (Q16620 32-822): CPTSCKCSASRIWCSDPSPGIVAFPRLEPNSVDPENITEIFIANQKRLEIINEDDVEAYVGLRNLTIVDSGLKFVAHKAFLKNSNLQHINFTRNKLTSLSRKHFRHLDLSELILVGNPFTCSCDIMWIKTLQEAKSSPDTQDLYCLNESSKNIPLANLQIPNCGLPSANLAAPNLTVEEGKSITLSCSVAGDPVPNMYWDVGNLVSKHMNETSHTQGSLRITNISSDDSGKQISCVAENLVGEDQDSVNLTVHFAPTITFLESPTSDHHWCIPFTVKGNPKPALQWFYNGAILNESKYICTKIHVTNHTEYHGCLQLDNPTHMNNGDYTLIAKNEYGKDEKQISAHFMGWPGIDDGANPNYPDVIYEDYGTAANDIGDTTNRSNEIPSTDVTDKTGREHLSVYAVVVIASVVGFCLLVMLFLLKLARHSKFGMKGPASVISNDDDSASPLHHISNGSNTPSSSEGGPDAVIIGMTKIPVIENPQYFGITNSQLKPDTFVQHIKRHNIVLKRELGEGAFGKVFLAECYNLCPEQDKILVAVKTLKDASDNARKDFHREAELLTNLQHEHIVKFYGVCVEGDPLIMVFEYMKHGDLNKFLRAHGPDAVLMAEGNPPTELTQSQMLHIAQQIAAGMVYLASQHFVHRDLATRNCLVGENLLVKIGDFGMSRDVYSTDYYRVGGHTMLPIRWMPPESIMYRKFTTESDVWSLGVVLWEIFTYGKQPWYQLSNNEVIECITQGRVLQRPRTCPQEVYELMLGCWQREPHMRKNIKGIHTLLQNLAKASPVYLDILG
T4 sequence (Q9UIK4 whole entry): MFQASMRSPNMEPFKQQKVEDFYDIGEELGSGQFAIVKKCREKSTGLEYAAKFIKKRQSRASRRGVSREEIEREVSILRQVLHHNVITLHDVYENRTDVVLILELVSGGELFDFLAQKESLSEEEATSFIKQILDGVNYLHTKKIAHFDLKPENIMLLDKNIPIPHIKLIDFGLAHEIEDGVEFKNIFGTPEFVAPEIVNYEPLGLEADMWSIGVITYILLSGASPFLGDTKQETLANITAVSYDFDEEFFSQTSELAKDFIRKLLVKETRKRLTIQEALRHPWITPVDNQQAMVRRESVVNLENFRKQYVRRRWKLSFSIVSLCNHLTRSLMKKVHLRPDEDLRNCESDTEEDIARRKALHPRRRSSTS
T9 sequence (Q16513 whole entry): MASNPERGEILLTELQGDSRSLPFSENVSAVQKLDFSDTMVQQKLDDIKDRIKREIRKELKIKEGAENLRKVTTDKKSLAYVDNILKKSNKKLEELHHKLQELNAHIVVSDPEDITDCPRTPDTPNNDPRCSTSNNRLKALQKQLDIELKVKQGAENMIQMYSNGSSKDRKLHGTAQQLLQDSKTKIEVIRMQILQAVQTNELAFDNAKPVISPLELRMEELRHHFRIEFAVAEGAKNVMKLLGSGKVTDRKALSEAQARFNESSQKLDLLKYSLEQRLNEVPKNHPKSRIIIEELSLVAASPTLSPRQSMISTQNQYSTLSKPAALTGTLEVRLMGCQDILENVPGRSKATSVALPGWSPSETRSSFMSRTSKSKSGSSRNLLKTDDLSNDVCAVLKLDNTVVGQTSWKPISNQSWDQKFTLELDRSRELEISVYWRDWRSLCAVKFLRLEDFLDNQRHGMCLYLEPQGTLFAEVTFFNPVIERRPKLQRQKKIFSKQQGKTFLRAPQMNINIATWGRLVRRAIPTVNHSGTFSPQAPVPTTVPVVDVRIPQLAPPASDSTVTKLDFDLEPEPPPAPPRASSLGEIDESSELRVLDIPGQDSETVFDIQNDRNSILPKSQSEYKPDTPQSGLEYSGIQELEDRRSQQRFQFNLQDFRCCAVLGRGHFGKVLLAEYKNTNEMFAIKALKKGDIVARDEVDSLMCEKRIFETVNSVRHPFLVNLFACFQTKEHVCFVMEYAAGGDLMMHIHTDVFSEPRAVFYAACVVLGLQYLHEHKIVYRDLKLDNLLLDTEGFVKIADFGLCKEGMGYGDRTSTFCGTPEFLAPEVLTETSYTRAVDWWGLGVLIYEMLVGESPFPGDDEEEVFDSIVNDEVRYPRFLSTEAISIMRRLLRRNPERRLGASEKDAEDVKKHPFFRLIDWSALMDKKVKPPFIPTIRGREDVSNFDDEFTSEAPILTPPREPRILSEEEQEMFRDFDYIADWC
T6 sequence (P53671 whole entry): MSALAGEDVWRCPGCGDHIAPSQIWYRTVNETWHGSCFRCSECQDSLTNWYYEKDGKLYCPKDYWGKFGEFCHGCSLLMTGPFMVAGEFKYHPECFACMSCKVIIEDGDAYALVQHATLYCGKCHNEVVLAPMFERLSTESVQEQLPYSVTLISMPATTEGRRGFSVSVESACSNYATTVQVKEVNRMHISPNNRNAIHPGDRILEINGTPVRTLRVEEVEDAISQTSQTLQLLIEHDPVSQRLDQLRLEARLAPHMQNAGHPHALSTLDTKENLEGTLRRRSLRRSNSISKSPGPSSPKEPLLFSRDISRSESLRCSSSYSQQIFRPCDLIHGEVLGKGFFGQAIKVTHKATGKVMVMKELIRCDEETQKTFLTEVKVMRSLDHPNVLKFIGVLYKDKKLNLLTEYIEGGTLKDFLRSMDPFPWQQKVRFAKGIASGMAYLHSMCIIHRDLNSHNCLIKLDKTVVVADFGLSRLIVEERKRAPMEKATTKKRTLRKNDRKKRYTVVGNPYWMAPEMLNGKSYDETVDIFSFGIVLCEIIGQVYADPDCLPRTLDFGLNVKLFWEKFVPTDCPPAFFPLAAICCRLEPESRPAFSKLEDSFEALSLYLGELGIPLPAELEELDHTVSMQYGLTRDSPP

C=CC(=O)Nc1cccc(Nc2nc(Nc3ccc(OCCOC)c(F)c3)ncc2F)c1 [Compound 2]
inhibition at 3 µM (BRSK2): 8.66% | remaining activity at 3 µM (BRSK2; [1]): 91% | remaining activity at 3 µM (BRSK2; [2]): 91.7% | inhibition at 3 µM (CAMK1d): -3.36% | remaining activity at 3 µM (CAMK1d; [1]): 104% | remaining activity at 3 µM (CAMK1d; [2]): 103% | inhibition at 3 µM (CDC7/DBF4): -2.02% | remaining activity at 3 µM (CDC7/DBF4; [1]): 100% | remaining activity at 3 µM (CDC7/DBF4; [2]): 104% | inhibition at 3 µM (DAPK2): -9.89% | remaining activity at 3 µM (DAPK2; [1]): 108% | remaining activity at 3 µM (DAPK2; [2]): 112% | inhibition at 3 µM (EPHA4): 9.09% | remaining activity at 3 µM (EPHA4; [1]): 92.9% | remaining activity at 3 µM (EPHA4; [2]): 89% | inhibition at 3 µM (LIMK2): -0.86% | remaining activity at 3 µM (LIMK2; [1]): 101% | remaining activity at 3 µM (LIMK2; [2]): 101% | inhibition at 3 µM (MYLK3): -15% | remaining activity at 3 µM (MYLK3; [1]): 113% | remaining activity at 3 µM (MYLK3; [2]): 116% | inhibition at 3 µM (NEK6): -5.69% | remaining activity at 3 µM (NEK6; [1]): 106% | remaining activity at 3 µM (NEK6; [2]): 105% | inhibition at 3 µM (PKN2/PRK2): 7.64% | remaining activity at 3 µM (PKN2/PRK2; [1]): 93.3% | remaining activity at 3 µM (PKN2/PRK2; [2]): 91.4% | inhibition at 3 µM (SRPK2): 9.73% | remaining activity at 3 µM (SRPK2; [1]): 90.9% | remaining activity at 3 µM (SRPK2; [2]): 89.6% | inhibition at 3 µM (TRKB): 14.2% | remaining activity at 3 µM (TRKB; [1]): 86.5% | remaining activity at 3 µM (TRKB; [2]): 85%
